Data: US20110136880A1, “Latrunculin-Based Macrolides and Their Uses” (priority 2009, published 2011)
Where two headings read alike, the source gives them in different places.

What was measured:
[1] = tested on: PC-3; test: MTT proliferation assay, PC-3; type: cell-based, human; details: Homo sapiens, read-out: IC50 (μM) PC-3
From the text: (§1) The antiproliferative and anti-invasive activities of compounds 1-14 were quantified using MTT and cell invasion assay kits, respectively. Latrunculin A (compound 1) was used as a positive control in all biological assays, because it is known to be an actin polymerization inhibitor, with cytotoxic, antiproliferative, and anti-invasive activities. The 3-[4,5-dimethylthiazol-2-yl]-2,5-diphenyl tetrazolium bromide (MTT) assay selectively detects living cells in a quantitative, colorimetric fashion, based on a living cell's ability to reduce MTT to an insoluble, purple formazan dye. The MTT assay is routinely used to assess cytotoxicity and proliferation inhibition activities. The antiproliferative activities of compounds 1-14 were measured against two human mammary gland adenocarcinoma cell lines, MCF7 and MDA-MB-231, and against human prostate cancer cells PC-3 at five different doses (0.1, 0.5, 1, 10, and 50 μM). While many of the semisynthetic latrunculins had similar activity levels, some had greater activity than compound 1. […] Although the MDA-MB-231 cells were more resistant than MCF7 against most latrunculin derivatives tested, compound 14 had potent activity against both cell lines.
(§2) MTT Proliferation Assay. The growth of MCF7, MDA-MB-231, and PC-3 cancer cell lines was measured using an MTT kit (TACS™, TREVIGEN®, Inc.). Exponentially growing cells were plated in a 96-well plate at a density of 8×10^3 cells per well, and allowed to attach for 24 h. Complete growth medium was then replaced with 100 μL of RPMI serum-free medium containing various concentrations (50, 10, 1, 0.5, 0.1 μM) of the particular test compound. Culture continued at 37° C. under 5% CO2. After 72 h of culture, the cells were treated with MTT solution (10 μL/well) at 37° C. for 4 h. The color reaction was stopped by adding solubilization/stop solution (100 μL/well). Incubation continued at 37° C. continued to completely dissolve the formazan dye product. Absorbance of the samples was determined at 570 nm with an ELISA plate reader (BioTek, VT). The number of cells per well was calculated against a standard curve that had been prepared by plating various concentrations of cells, as determined by hemocytometer, at the start of each experiment. IC50 for each compound was calculated using a nonlinear regression curve fit of log concentration versus the number of cells/well, using GraphPad Prism 5.0 (GraphPad Software, La Jolla, Calif.).

[2] = tested on: MCF7; test: MTT proliferation assay, MCF7; type: cell-based, human; details: Homo sapiens, read-out: IC50 (μM) MCF7
From the text: as §1, §2

[3] = biological target: T1, pyrene-conjugated actin (Oryctolagus cuniculus, UniProt P68135); test: Pyrene actin polymerization assay; type: biochemical; details: for IC50: mean ± SEM, triplicate; for inhibition at 0.1 µM: read-out: Actin polymerization inhibition (%) 100 nM; for inhibition at 1 µM: read-out: Actin polymerization inhibition (%) 1 μM
T1 construct: purchased Cytoskeleton, Denver, Colo
Procedure: An actin polymerization kit was used to assess the direct actin-binding activity of each analogue at two concentrations: 100 nM and 1 μM. This kit is based on the enhanced fluorescence of pyrene-conjugated actin that occurs during polymerization. When pyrene-G-actin (monomer) forms pyrene-F-actin, fluorescence is enhanced. The enhanced fluorescence is used to follow polymerization over time. Table 2 lists activities as the percentage of actin polymerization inhibition, compared to the negative vehicle control (DMSO), along with calculated IC50.
Pyrene-Actin Polymerization Assays. Actin polymerization assays were performed in accordance with the manufacturer's instructions (Cytoskeleton, Denver, Colo.). Briefly, […] final concentration of monomeric actin (1:10 pyrene labeled) was incubated on ice for 10 min with one of various concentrations of one of the latrunculin derivatives. Samples were then equilibrated 10 min in an ELISA plate reader (BioTek, VT), after which polymerization was induced by adding KCl, MgCl2, and ATP. Compounds 1-14 were tested at 0.1, 0.5, 1.0, and 10 μM. The IC50 for each compound was calculated using GraphPad Prism 5.0.
Pyrene-actin polymerization assays. Actin polymerization inhibitory activity is assessed using the Cytoskeleton Actin Polymerization kit (Cytoskeleton, Denver, Colo.). Briefly, […] (final concentration) of monomeric actin (1:10 pyrene labeled) is incubated on ice for 10 min with one of various concentrations of the test latrunculin compound. Samples are equilibrated 10 min in an ELISA plate reader (BioTek, VT), after which polymerization is induced by adding KCl, MgCl2, and ATP. Compounds are tested at 0.1, 0.5, 1.0, and 10 μM. The IC50 for each compound is calculated using GraphPad Prism 5.0.

[4] = tested on: MDA-MB-231; test: MTT proliferation assay, MDA-MB-231; type: cell-based, human; details: Homo sapiens, read-out: IC50 (μM) MDA-MB-231
From the text: as §1, §2

[5] = tested on: MDA-MB-231 cells; test: Cultrex BME cell invasion assay; type: cell-based, human; details: for anti-invasive activity compared with compound 1: 1 and 0.5 μM doses
Procedure: The anti-invasive activities of compounds 1-14 were measured using a 96 well basement membrane extract (BME) cell invasion assay kit against the highly metastatic MDA-MB-231 cells. This assay employs a simplified Boyden Chamber with a polyethylene terephthalate membrane (8 μm pore size). Cell invasion was quantified using calcein-acetomethylester (calcein-AM). Cells internalize calcein-AM; intracellular esterases then cleave the acetomethylester moiety to generate free calcein. Free calcein fluoresces brightly. This fluorescence may be used to quantify the number of cells that have invaded across the BME. To correlate the anti-invasive activities of the latrunculin A derivatives with their actin-disrupting activities, compounds 1-14 were each tested at non-toxic concentrations. […] Accordingly, all compounds were tested at 0.1, 0.5, and 1.0 μM. Compound 3 killed 17% of MDA-MB-231 cells at 1.0 μM, while the same dose of compound 3 inhibited 95% of MDA-MB-231 cells' invasion. […] The anti-invasive activities of compounds 1-14 are attributed primarily to the inhibition of actin polymerization, not to cell death per se.
Cultrex® Cell Invasion Assay. Anti-invasive activities were measured using Trevigen's Cultrex® Cell Invasion Assay as described in K. Tamilarasan et al., BMC Cell Biol. 2006, 7, 17-30; and P. Borghesani et al., Development. 2002, 6, 1435-1442. About 50 μL of basement membrane extract (BME) coat was added to each well. After incubation for 4 h at 37° C. under 5% CO2, 50,000 MDA-MB-231 cells in 50 μL of serum free RPMI medium were added to each well in the top chamber, along with the test compound at one of several concentrations (0.1, 0.5, 1 μM). About 150 μL of RPMI medium was added to the lower chamber in 10% FBS and penicillin/streptomycin, using fibronectin ([…]) and N-formyl-met-leu-phe (10 nM) as chemoattractants. Cells were allowed to migrate to the lower chamber at 37° C. under 5% CO2. After 24 h, the top and bottom chambers were aspirated and washed with the washing buffer that had been supplied with the kit. About 100 μL of Cell Dissociation Solution/Calcein-AM solution was added to the bottom chamber, and the cells were incubated at 37° C. under CO2 for 1 h. Briefly, the cells internalize calcein-AM, and then the intracellular esterases cleave the AM moiety to generate free calcein. […] The number of cells that had invaded through the BME coat was calculated using a standard curve.

[6] = 100 nM, compared to vehicle control (DMSO)
[7] = 1 μM, compared to vehicle control (DMSO)
[8] = MDA-MB-231, MTT, 72 h, mean ± SEM

Compound	IC50 ([1]; PC-3, 72 h)	IC50 ([2]; MCF7, 72 h)	IC50 [3]	inhibition at 0.1 µM [3]	inhibition at 1 µM [3]	IC50 ([4]; MDA-MB-231, 72 h)	IC50 ([1]; PC-3, MTT, 72 h)	IC50 ([2]; MCF7, MTT, 72 h, mean ± SEM)	inhibition at 0.1 µM [3, 6]	inhibition at 1 µM [3, 7]	IC50 [4, 8]	anti-invasive activity compared with compound 1 [5]	fold more active against cell invasion than latrunculin A (compound 1) ([5]; 0.5 μM)
C/C1=C/C(=O)O[C@@H]2C[C@@H](CC[C@H](C)/C=C\C=C\CC1)O[C@@](O)([C@@H]1CSC(=O)N1)C2 [Compound 1, Latrunculin A, reference compound]	3.9 µM	0.48 ± 0.04 µM	284 ± 72 nM	30%	73%	4.19 ± 1.49 µM	–	–	–	–	–	–	–
CO[C@]1([C@@H]2CSC(=O)N2)C[C@H]2C[C@@H](CC[C@H](C)/C=C\C=C\CC/C(C)=C\C(=O)O2)O1 [Compound 2, 17-O-Methyllatrunculin A]	–	–	9230 ± 825 nM	–	–	–	22.3 µM	10.2 ± 1.72 µM	6%	21%	23.4 ± 0.85 µM	–	–
C/C1=C/C(=O)O[C@@H]2C[C@@H](CC[C@H](C)/C=C\C=C\CC1)O[C@@](OC(=O)c1ccccc1)([C@@H]1CSC(=O)N1)C2 [Compound 4, 17-O-Benzoyllatrunculin A]	–	–	466 ± 51 nM	–	–	–	6.44 µM	0.52 ± 0.14 µM	23%	67%	5.05 ± 0.36 µM	equipotent to compound 1	–
CO[C@]1([C@@H]2CSC(=O)N2C)C[C@H]2C[C@@H](CC[C@H](C)/C=C\C=C\CC/C(C)=C\C(=O)O2)O1 [Compound 5, 17-O-Methyl-N-methyllatrunculin A]	–	–	> 10000 nM	–	–	–	19.4 µM	13.1 ± 3.69 µM	11%	19%	19.9 ± 3.27 µM	–	–
CCN1C(=O)SC[C@H]1[C@@]1(OC)C[C@H]2C[C@@H](CC[C@H](C)/C=C\C=C\CC/C(C)=C\C(=O)O2)O1 [Compound 6, 17-O-Methyl-N-ethyllatrunculin A]	–	–	> 10000 nM	–	–	–	29.3 µM	20.6 ± 2.77 µM	0%	18%	> 50 µM	–	–
CO[C@]1([C@@H]2CSC(=O)N2C2CCCC2)C[C@H]2C[C@@H](CC[C@H](C)/C=C\C=C\CC/C(C)=C\C(=O)O2)O1 [Compound 7, 17-O-Methyl-N-cyclopentanelatrunculin A]	–	–	1050 ± 271 nM	–	–	–	7.24 µM	5.3 ± 1.32 µM	20%	49%	5.07 ± 0.72 µM	–	–
CO[C@]1([C@@H]2CSC(=O)N2CCCO)C[C@H]2C[C@@H](CC[C@H](C)/C=C\C=C\CC/C(C)=C\C(=O)O2)O1 [Compound 8, 17-O-Methyl-N-(3′-hydroxypropyl)latrunculin A]	–	–	8550 ± 574 nM	–	–	–	34.2 µM	19.2 ± 3.91 µM	0%	21%	> 50 µM	–	–
CO[C@]1([C@@H]2CSC(=O)N2Cc2ccccc2)C[C@H]2C[C@@H](CC[C@H](C)/C=C\C=C\CC/C(C)=C\C(=O)O2)O1 [Compound 9, 17-O-Methyl-N-benzyllatrunculin A]	–	–	333 ± 76 nM	–	–	–	8.3 µM	0.78 ± 0.24 µM	33%	67%	6.82 ± 1.41 µM	–	–
CO[C@]1([C@@H]2CSC(=O)N2C(=O)c2ccccc2)C[C@H]2C[C@@H](CC[C@H](C)/C=C\C=C\CC/C(C)=C\C(=O)O2)O1 [Compound 10, 17-O-Methyl-N-benzoyllatrunculin A]	–	–	834 ± 109 nM	–	–	–	4.7 µM	0.55 ± 0.091 µM	17%	53%	4.48 ± 1.79 µM	–	–
CCN1C(=O)SC[C@H]1[C@@]1(O)C[C@H]2C[C@@H](CC[C@H](C)/C=C\C=C\CC/C(C)=C\C(=O)O2)O1 [Compound 12, N-Ethyllatrunculin A]	–	–	283 ± 51 nM	–	–	–	5.72 µM	0.95 µM	32%	70%	7.19 µM	equipotent to compound 1	–
C/C1=C/C(=O)O[C@@H]2C[C@@H](CC[C@H](C)/C=C\C=C\CC1)O[C@@](O)([C@@H]1CSC(=O)N1Cc1ccccc1)C2 [Compound 13, N-Benzyllatrunculin A]	–	–	445 ± 79 nM	–	–	–	3.8 µM	0.63 µM	24%	64%	2.72 µM	–	3.1 fold
